Assay results: patent publication US9193725B2, “Cyclic hydrazine derivatives as HIV attachment inhibitors” (priority 2012, dated 2015)
Read-outs that look alike come from different tables or passages of the source.

System: HIV-1 LAI envelope single-round infectious reporter virus
Assay: Single-round infectious luciferase reporter virus (HIV-1 LAI envelope) infection of MT2 cells
Assay type: cell-based
Conditions: Human immunodeficiency virus 1, MT2, 72 h
Source text: • Virus production—Human embryonic Kidney cell line, 293T (HEK 293T), was propagated in Dulbecco's Modified Eagle Medium (Invitrogen, Carlsbad, Calif.) containing 10% fetal bovine serum (FBS, Sigma, St. Louis, Mo.). The human T-cell leukemia cell MT2 (AIDS Research and Reference Reagent Program, Cat. 237) was propagated in RPMI 1640 (Invitrogen, Carlsbad, Calif.) containing 10% fetal bovine serum (FBS, Hyclone, Logan, Utah) • Virus infection—Single-round infectious reporter virus was produced by co-transfecting HEK 293T cells with plasmide expressing the HIV-1 LAI envelope along with a plasmid containing an HIV-1 LAI proviral cDNA with the envelope gene replaced by a firefly luciferase reporter gene (Chen et al., Ref 41). Transfections were performed using lipofectAMINE PLUS reagent as described by the manufacturer (Invitrogen, Carlsbad, Calif.). Experimental Procedure • 1. MT2 cells were plated in black, 384 well plates at a cell density of 5×10^3 cells per well in 25 μl RPMI 1640 containing 10% FBS. • 2. Compound (diluted in dimethylsulfoxide and growth medium) was added to cells at 12.5 μl/well, so that the final assay concentration would be ≦50 nM. • 3. 12.5 μl of single-round infectious reporter virus in Dulbecco's Modified Eagle Medium was added to the plated cells and compound at an approximate multiplicity of infection (MOI) of 0.01, resulting in a final volume of 50 μl per well. • 4. Virus-infected cells were incubated at 37 degrees Celsius in a CO2 incubator and harvested 72 h after infection. • 5. Viral infection was monitored by measuring luciferase expression in the infected cells using a luciferase reporter gene assay kit (Steady-Glo, Promega, Madison, Wis.) as described by the manufacturer. Luciferase activity was then quantified by measuring luminescence using an EnVision Multilabel Plate Readers (PerkinElmer, Waltham, Mass.). • 6. The percent inhibition for each compound was calculated by quantifying the level of luciferase expression in cells infected in the presence of each compound as a percentage of that observed for cells infected in the absence of compound and subtracting such a determined value from 100. • 7. An EC50 provides a method for comparing the antiviral potency of the compounds of this disclosure. The effective concentration for fifty percent inhibition (EC50) was calculated with the Microsoft Excel Xlfit curve fitting software. For each compound, curves were generated from percent inhibition calculated at 10 different concentrations by using a four parameter logistic model (model 205). Table 1 is the key for the data in Table 2.

[1] = read-out: EC50 Group from Table 1

Row | Structure (SMILES) | EC50 [1] [nM] | EC50 [nM]
1 | COc1cnc(-n2cnc(C)n2)c2[nH]cc(C(=O)C(=O)N3CCc4c(-c5ccccn5)ncnc4N3C)c12 [Compound 2002, 1-(4-methoxy-7-(3-methyl-1H-1,2,4-triazol-1-yl)-1H-pyrrolo[2,3-c]pyridin-3-yl)-2-(1-methyl-5-(pyridin-2-yl)-3,4-dihydropyrimido[4,5-c]pyridazin-2(1H)-yl)ethane-1,2-dione] | < 500 | –
2 | COc1cnc(-n2cnc(C)n2)c2[nH]cc(C(=O)C(=O)N3CCc4c(ncnc4-c4ccccc4)N3)c12 [Compound 2004, 1-(4-methoxy-7-(3-methyl-1H-1,2,4-triazol-1-yl)-1H-pyrrolo[2,3-c]pyridin-3-yl)-2-(5-phenyl-3,4-dihydropyrimido[4,5-c]pyridazin-2(1H)-yl)ethane-1,2-dione] | < 500 | –
3 | COc1cnc(-n2cnc(C)n2)c2[nH]cc(C(=O)C(=O)N3CCc4c(-c5ccccc5)ncnc4N3C)c12 [Compound 2001, 1-(4-methoxy-7-(3-methyl-1H-1,2,4-triazol-1-yl)-1H-pyrrolo[2,3-c]pyridin-3-yl)-2-(1-methyl-5-phenyl-3,4-dihydropyrimido[4,5-c]pyridazin-2(1H)-yl)ethane-1,2-dione] | < 500 | –
4 | COc1cnc(-n2cnc(C)n2)c2[nH]cc(C(=O)C(=O)N3CC/C(=C(/C#N)c4ccccc4)CN3C)c12 [Compound 1006, (Z)-2-(1-(2-(4-methoxy-7-(3-methyl-1H-1,2,4-triazol-1-yl)-1H-pyrrolo[2,3-c]pyridin-3-yl)-2-oxoacetyl)-2-methylpiperazin-4-ylidene)-2-phenylacetonitrile] | < 500 | 456
5 | COc1cnc(-n2cnc(C)n2)c2[nH]cc(C(=O)C(=O)N3CC/C(=C(\C#N)c4ccccc4)CN3)c12 [Compound 1002] | < 500 | 0.29
6 | COc1cnc(-n2cnc(C)n2)c2[nH]cc(C(=O)C(=O)N3C(C)Cc4c(-c5ccccc5)ncnc4N3C)c12 (stereo not drawn) [Compound 2003, 1-(1,3-dimethyl-5-phenyl-3,4-dihydropyrimido[4,5-c]pyridazin-2(1H)-yl)-2-(4-methoxy-7-(3-methyl-1H-1,2,4-triazol-1-yl)-1H-pyrrolo[2,3-c]pyridin-3-yl)ethane-1,2-dione] | < 500 | –
7 | N#C/C(=C1\CCN(C(=O)C(=O)c2c[nH]c3c(-n4ccnn4)ncc(F)c23)NC1)c1ccccc1 [Compound 1001] | < 500 | –
